{
  "source": "patent US7060273B2",
  "about": "“Methods for inhibiting HIV-1 infection” (priority 2001, dated 2006)",
  "key": {"[1]": {"test_system": "fusion between HeLa-EnvJR-FL and PM1 cells", "procedure": "HIV-1 envelope-mediated fusion between HeLa-EnvJR-FL and PM1 cells was detected using a Resonance Energy Transfer (RET) assay.\nHIV-1 inhibition data were analyzed according to the Combination Index method of Chou and Talay. The data are modeled according to the median-effect principle, which can be written f=1/[1+(K/c)^m] (1) where f is the fraction affected/inhibited, c is concentration, K is the concentration of agent required to produce the median effect, and m is an empirical coefficient describing the shape of the dose-response curve. Equation (1) is a generalized form of the equations describing Michaelis-Menton enzyme kinetics, Langmuir adsorption isotherms, and Henderson-Hasselbalch ionization equilibria, for which m=1 in all cases. In the present case, K is equal to the IC50 value. K and m are determined by curve-fitting the dose-response curves.\nAfter the best-fit parameters for K and m are obtained for the experimental agents and their combination, Equation (1) is rearranged to allow for calculation of c for a given f.\nAll concentrations are those required to achieve a given degree of inhibition. Equation (2) is used when the molecules are mutually nonexclusive, i.e., have different sites of action. Since this is the likely scenario for inhibitors of HIV-1 attachment and gp41 fusion intermediates, Equation (2) was used for all Combination Index calculations. […] CI<1 indicates synergy, CI=1 indicates purely additive effects, and CI>1 indicates antagonism. In general, CI values are most relevant at the higher levels of inhibition that are required to achieve a measurable clinical benefit."}, "HIV": {"test_system": "HIV", "conditions": "human, in vivo; cited from earlier work"}},
  "data": [
    {"substance": "enfuvirtide", "values": [
      {"measurement": "concentration of the agent contained in the combination giving 95% inhibition", "setting": "[1]; 25:1 CD4-IgG2:T-20 mass ratio", "value": 0.044, "unit": "µg/mL"},
      {"measurement": "dose reduction by the combination", "setting": "[1]; 95% inhibition, 25:1 mass ratio", "value": 5, "unit": "fold"},
      {"measurement": "K (equal to IC50), best-fit median effect parameter", "setting": "[1]; FIG. 8, combination 25:1 CD4-IgG2:T-20", "value": 0.017, "unit": "µg/mL"},
      {"measurement": "concentration required for inhibition of viral entry by 95%", "setting": "[1]; agent used alone, or total of 25:1 mass ratio combination", "value": 0.21, "unit": "µg/mL"},
      {"measurement": "reduction of plasma HIV RNA levels", "setting": "HIV", "value": "≤ 2", "unit": "logs"}
    ]}
  ]
}
